Values after ≈ are worked out from the molar mass of the structure shown. Some results are limits rather than exact numbers.

The nature of assay [1]: Antibacterial activity against Salmonella choleraesuis 14028 by NCCLS protocol based broth microdilution method. The settings on record: Salmonella enterica. It is filed as functional, Salmonella enterica subsp. enterica serovar Choleraesuis. In general terms: In broth dilution the organism is exposed to a series of concentrations in liquid medium.
Assay [2] concerns Klebsiella pneumoniae. Put plainly: Antibacterial activity against Klebsiella pneumoniae 13883 by NCCLS protocol based broth microdilution method. Format: functional.
The subject of assay [3] is Staphylococcus epidermidis. Put plainly: Antibacterial activity against Staphylococcus epidermidis ATCC 12228 by NCCLS protocol based broth microdilution method. It is filed as functional.
Assay [4] concerns Staphylococcus aureus. The assay can be described thus: Antibacterial activity against Staphylococcus aureus ATCC 25923 by NCCLS protocol based broth microdilution method. Format: functional.
Assay [5] has as its system Pseudomonas aeruginosa. The assay can be described thus: Antibacterial activity against Pseudomonas aeruginosa 27853 by NCCLS protocol based broth microdilution method. Format: functional.
The subject of assay [6] is Streptococcus pneumoniae. Put plainly: Antibacterial activity against Streptococcus pneumoniae 49619 by NCCLS protocol based broth microdilution method. Format: functional.
Assay [7] deals with Escherichia coli. The assay can be described thus: Antibacterial activity against Escherichia coli ATCC 25922 by NCCLS protocol based broth microdilution method. It is filed as functional.
Assay [8] has as its system Enterococcus faecalis. The assay can be described thus: Antibacterial activity against Enterococcus faecalis ATCC 29212 by NCCLS protocol based broth microdilution method. It is filed as functional.
Assay [9] concerns Haemophilus influenzae. The assay can be described thus: Antibacterial activity against Haemophilus influenzae 49247. Format: functional.
For assay [10], the system named is Haemophilus influenzae. The assay can be described thus: Antibacterial activity against Haemophilus influenzae 33929. Format: functional.
Assay [11] has as its system Escherichia coli. The assay can be described thus: Antibacterial activity against Escherichia coli DK pKK 3535. Format: functional.
Assay [12] deals with Escherichia coli. The assay can be described thus: Antibacterial activity against Escherichia coli DK A2058G. Format: functional.
Assay [13] deals with Streptococcus pneumoniae. Put plainly: Antibacterial activity against Streptococcus pneumoniae ATCC 49619. It is filed as functional.
Assay [14] has as its system Streptococcus pneumoniae. Put plainly: Antibacterial activity against Streptococcus pneumoniae 655 mefA. It is filed as functional.
The test system of assay [15] is Streptococcus pneumoniae. Put plainly: Antibacterial activity against Streptococcus pneumoniae UNT-042 expressing ErmB/MefA. It is filed as functional.
Assay [16] relates to Pseudomonas aeruginosa. The assay can be described thus: Antibacterial activity against Pseudomonas aeruginosa ATCC 27853. Format: functional.
The next assay deals with Acinetobacter baumannii. Put plainly: Antibacterial activity against Acinetobacter baumannii ATCC 19606. Format: functional. The note with it: ATCC 19606 = CIP 70.34 = JCM 6841.
In assay [17] the test system is Escherichia coli. The assay can be described thus: Antibacterial activity against Escherichia coli ATCC 25922. Format: functional.
The subject of assay [18] is Enterococcus faecalis. The assay can be described thus: Antibacterial activity against Enterococcus faecalis UN-047 VRE expressing ErmS. It is filed as functional.
In assay [19] the test system is Klebsiella pneumoniae. Put plainly: Antibacterial activity against Klebsiella pneumoniae ATCC 10031. It is filed as functional.
Assay [20] concerns Staphylococcus aureus. The assay can be described thus: Antibacterial activity against methicillin resistant Staphylococcus aureus NRS384 expressing MsrA. Format: functional.
Assay [21] has as its system Streptococcus pyogenes. The assay can be described thus: Antibacterial activity against Streptococcus pyogenes ATCC 19615. Format: functional.
Assay [22] has as its system Enterococcus faecalis. Put plainly: Antibacterial activity against Enterococcus faecalis ATCC 29212. Format: functional.
In assay [23] the test system is Haemophilus influenzae. The assay can be described thus: Antibacterial activity against Haemophilus influenzae ATCC 49247. Format: functional.
The subject of assay [24] is Staphylococcus aureus. Put plainly: Antibacterial activity against Staphylococcus aureus ATCC 29213. It is filed as functional.
In assay [25] the test system is Staphylococcus aureus. The assay can be described thus: Antibacterial activity against methicillin resistant Staphylococcus aureus MP513 expressing cErmA. It is filed as functional.
In assay [26] the test system is Staphylococcus aureus. Put plainly: Antibacterial activity against Staphylococcus aureus BAA-977 expressing iermA. Format: functional.
The subject of the next assay is Pasteurella multocida. The assay can be described thus: Antibacterial activity against Pasteurella multocida IATCC 11039 after 24 hrs by broth microdilution method. The settings on record: IATCC 11039, 24 h. It is filed as functional.
Assay [27] has as its system Staphylococcus aureus. The assay can be described thus: Antibacterial activity against Staphylococcus aureus ATCC 25923 after 24 hrs by broth microdilution method. Format: functional. The settings on record: ATCC 25923, 24 h.
The next assay has as its system Cutibacterium acnes. Put plainly: Antibacterial activity against Propionibacterium acnes ATCC 6919 after 24 hrs by broth microdilution method. It is filed as functional. The settings on record: ATCC 6919, 24 h.
Assay [28] relates to Streptococcus pneumoniae. Put plainly: Antibacterial activity against Streptococcus pneumoniae ATCC 49619 after 24 hrs by broth microdilution method. Format: functional. The note with it: ATCC 49619, 24 h.
The subject of another assay is Histophilus somni. Put plainly: Antibacterial activity against Histophilus somni ATCC 700025 after 24 hrs by broth microdilution method. The note with it: ATCC 700025, 24 h. Format: functional.
For assay [29], the system named is Escherichia coli. Put plainly: Antibacterial activity against Escherichia coli ECM1888 after 24 hrs by broth microdilution method. It is filed as functional. The settings on record: ECM1888, 24 h.
Assay [30] has as its system Streptococcus pyogenes. The assay can be described thus: Antibacterial activity against Streptococcus pyogenes ATCC 19615 after 24 hrs by broth microdilution method. Format: functional. The note with it: ATCC 19615, 24 h.
Assay [31] has as its system Enterococcus faecium. Put plainly: Antibacterial activity against Enterococcus faecium 569 after 24 hrs by broth microdilution method. Format: functional. The note with it: Enterococcus faecium, 569, 24 h.
For another assay, the system named is Mannheimia haemolytica. The assay can be described thus: Antibacterial activity against Mannheimia haemolytica IATCC 33396 after 24 hrs by broth microdilution method. It is filed as functional. The settings on record: IATCC 33396, 24 h.
The subject of assay [32] is Escherichia coli. Put plainly: Antibacterial activity against Escherichia coli leuS ANA395 after 24 hrs by broth microdilution method. Format: functional. The note with it: leuS ANA395, 24 h.
Assay [33] relates to Staphylococcus epidermidis. Put plainly: Antibacterial activity against Staphylococcus epidermidis ATCC 12228 after 24 hrs by broth microdilution method. Format: functional. The settings on record: ATCC 12228, 24 h.
Assay [34] deals with Enterococcus faecium. Put plainly: Antibacterial activity against Enterococcus faecium 568 after 24 hrs by broth microdilution method. Format: functional. The note with it: Enterococcus faecium, 568, 24 h.
Assay [35] concerns Staphylococcus aureus. The assay can be described thus: Antibacterial activity against Staphylococcus aureus 10 after 24 hrs by broth microdilution method. Format: functional. The note with it: Staphylococcus aureus, 10, 24 h.

Turning to `CC[C@H]1OC(=O)[C@H](C)[C@@H](O[C@H]2C[C@@](C)(OC)[C@@H](OC(=O)NC[C@H]3OB(O)c4ccccc43)[C@H](C)O2)[C@H](C)[C@@H](O[C@@H]2O[C@H](C)C[C@H](N(C)C)[C@H]2O)[C@](C)(OC)C[C@@H](C)C(=O)[C@H](C)[C@@H](O)[C@]1(C)O`, the MIC was greater than 64 µg/mL in [1]; greater than 64 µg/mL in the assay on Klebsiella pneumoniae [2]; 0.5 µg/mL (≈ 0.534 µM) in assay [3]; 2 µg/mL (≈ 2.13 µM) in the assay with Staphylococcus aureus [4]; greater than 64 µg/mL in the assay with Pseudomonas aeruginosa [5]; 0.5 µg/mL (≈ 0.534 µM) against Streptococcus pneumoniae [6]. Further, the figures for the MIC against Escherichia coli [7] and in the assay on Enterococcus faecalis [8] were greater than 64 µg/mL and 4 µg/mL (≈ 4.27 µM), respectively.
As for `CC[C@H]1OC(=O)[C@H](C)C(=O)[C@H](C)[C@@H](O[C@@H]2O[C@H](C)C[C@H](N(C)C)[C@H]2O)[C@@]2(C)C[C@@H](C)/C(=N\C(C)=O)[C@H](C)[C@@H](OC/C(=N\OCc3ccc(-c4ccno4)cn3)CO2)[C@]1(C)O`, the MIC against Haemophilus influenzae [9] and with Haemophilus influenzae [10] was 4 µg/mL (≈ 4.75 µM) throughout.
As for `CC[C@H]1OC(=O)[C@@](C)(F)C(=O)[C@H](C)[C@@H](O[C@@H]2O[C@H](C)C[C@H](N(C)C)[C@H]2O)[C@](C)(OC)C[C@@H](C)C(=O)[C@H](C)[C@H]2N(CCCCn3nncc3-c3cccs3)C(=O)O[C@]12C`, the MIC against Escherichia coli [11] came out at 1 µg/mL (≈ 1.2 µM); in the assay with Escherichia coli [12], 4 ng/mL (≈ 0.00478 µM); in the assay with Streptococcus pneumoniae [13], 1 µg/mL (≈ 1.2 µM); against Streptococcus pneumoniae [14] it was 0.5 µg/mL (≈ 0.598 µM).
On to `CC[C@H]1OC(=O)[C@H](C)C(=O)[C@H](C)[C@@H](O[C@@H]2O[C@H](C)C[C@H](N(C)C)[C@H]2O)[C@](C)(OC)C[C@@H](C)CN[C@H](C)[C@H]2N(CCCCn3cc(-c4cccc(N)c4)nn3)C(=O)O[C@]12C`, for which the MIC is 2 µg/mL (≈ 2.42 µM) with Streptococcus pneumoniae [15]; 64 µg/mL (≈ 77.3 µM) with Pseudomonas aeruginosa [16]; 4 µg/mL (≈ 4.83 µM) in the assay on Acinetobacter baumannii; 4 µg/mL (≈ 4.83 µM) with Escherichia coli [17]; no more than 0.03 µg/mL with Streptococcus pneumoniae [13]; greater than 64 µg/mL against Enterococcus faecalis [18]. Moreover, the MIC against Klebsiella pneumoniae [19] was 2 µg/mL (≈ 2.42 µM); against Staphylococcus aureus [20], 1 µg/mL (≈ 1.21 µM); against Streptococcus pyogenes [21], no more than 0.03 µg/mL; in the assay with Enterococcus faecalis [22], 0.125 µg/mL (≈ 0.151 µM); in the assay with Haemophilus influenzae [23], 2 µg/mL (≈ 2.42 µM); with Staphylococcus aureus [24], 0.5 µg/mL (≈ 0.604 µM). Moreover, the MIC with Staphylococcus aureus [25] is greater than 64 µg/mL; against Staphylococcus aureus [26], 0.5 µg/mL (≈ 0.604 µM).
On to `CC[C@H]1OC(=O)[C@@](C)(F)C(=O)[C@H](C)[C@@H](O[C@@H]2O[C@H](C)C[C@H](N(C)C)[C@H]2O)[C@](C)(OC)C[C@@H](C)C(=O)[C@H](C)[C@H]2N(CCCCn3cc(-c4cccs4)nn3)C(=O)O[C@]12C`, for which the MIC stood at 1 µg/mL (≈ 1.2 µM) in the assay with Escherichia coli [11], 4 ng/mL (≈ 0.00478 µM) against Escherichia coli [12], 1 µg/mL (≈ 1.2 µM) in the assay with Streptococcus pneumoniae [13] and 0.5 µg/mL (≈ 0.598 µM) in the assay on Streptococcus pneumoniae [14].
Regarding `CC[C@H]1OC(=O)[C@H](C)[C@@H](O[C@H]2C[C@@](C)(OC)[C@@H](OC(=O)NCCCNC(=O)CCc3cccc4c3B(O)OC4)[C@H](C)O2)[C@H](C)[C@@H](O[C@@H]2O[C@H](C)C[C@H](N(C)C)[C@H]2O)[C@](C)(O)C[C@@H](C)CN(C)[C@H](C)[C@H]2OC(=O)O[C@@]21C`, the MIC against Pasteurella multocida is 4 µg/mL (≈ 3.76 µM); in the assay on Staphylococcus aureus [27] it was 4 µg/mL (≈ 3.76 µM); in the assay on Cutibacterium acnes, no more than 0.12 µg/mL; in the assay on Streptococcus pneumoniae [28], 0.13 µg/mL (≈ 0.122 µM); in the assay on Histophilus somni, 4 µg/mL (≈ 3.76 µM); in the assay on Escherichia coli [29], 8 µg/mL (≈ 7.53 µM). Also, the MIC in the assay with Streptococcus pyogenes [30] turned out to be 0.25 µg/mL (≈ 0.235 µM); with Enterococcus faecium [31], 2 µg/mL (≈ 1.88 µM); with Mannheimia haemolytica it was 8 µg/mL (≈ 7.53 µM); against Escherichia coli [32], 8 µg/mL (≈ 7.53 µM); in [33] it was 8 µg/mL (≈ 7.53 µM); against Enterococcus faecium [34], 0.13 µg/mL (≈ 0.122 µM). In the assay with Staphylococcus aureus [35], this compound showed an MIC of 0.5 µg/mL (≈ 0.47 µM).

These data come from ChEMBL document CHEMBL4334493, “14- and 15-membered lactone macrolides and their analogues and hybrids: structure, molecular mechanism of action and biological activity” (Eur J Med Chem, 2019).
